Test results taken from article PMC6155255, “Synthetic Peptides Derived from Bovine Lactoferricin Exhibit Antimicrobial Activity against E. coli ATCC 11775, S. maltophilia ATCC 13636 and S. enteritidis ATCC 13076” (Molecules : A Journal of Synthetic Chemistry and Natural …, 2017).
Like-named read-outs stand apart in the source and are kept apart here. Positions of bridges follow the written chain, without caps; N, C: chain ends. Non-standard residues stand in square brackets, D forms with d. Residues, ends and D or L forms follow the SMILES beside them. Chains are numbered I, II in the order given. No end group written: not given here. Ahx = NCCCCCC(=O)O

Key:
E. coli K88 = test system: E. coli K88; set-up: method as in PMID 11248238, PMID 21607695, doi:10.1002/(SICI)1099-1387(199901)5:1<32::AID-PSC172>3.0.CO; conditions: cited from earlier work
E. coli ATCC 25922 [1] = conditions: cited from earlier work
Experimental: This apparent discrepancy could be related to the method used for determining the MIC [46, 47]. The antibacterial activity of LfcinB against E. coli IID861 was determined using the microdilution method with Mueller-Hinton broth (MIC = 50 µg/mL) or peptone-based broth (MIC = 6 µg/mL). […] Antibacterial activity against E. coli ATCC 25922 has also been reported, s ...

E. coli ATCC 11775 = assay type: cell-based, Escherichia coli
Experimental: (§1) The MIC and MBC were determined using a microdilution assay. In brief, bacterial strains were incubated for 18 to 24 h at 37 °C in an MH broth until an optical density of 0.15 to 0.30 (620 nm) was obtained. 90 µL of Mueller-Hinton broth (MHB) were mixed with 90 µL of peptide (440 µg/mL), and using a 96-well microtiter plate peptide, serial dilution (200, 100, 50, 25, 12.5, and 6.2 µg/mL) was performed. 10 µL of inoculum (2 × 10^6 CFU/mL) was added to each well. Final volume in each well was 100 µL. Then they were incubated for 24 h at 37 °C; and the absorbance at 620 nm was measured using an Asys Expert Plus ELISA reader. To determine the MBC, an aliquot was taken from each well and was spread onto a MHA plate. After 24 h at 37 °C, the CFU/mL was determined. Each of these tests was performed twice.

[2] = test system: S. maltophilia ATCC 13636; assay type: cell-based, Stenotrophomonas maltophilia
Experimental: as §1

[3] = test system: S. enteritidis ATCC 13076; assay type: cell-based, Salmonella enteritidis
Experimental: as §1

E. coli ATCC 25922 [4] = test system: E. coli ATCC 25922
[5] = E. coli ATCC 11775, aliquot of each well spread on MHA plate, 24 h at 37 °C, CFU/mL, performed twice
[6] = E. coli ATCC 11775, microdilution, Mueller-Hinton broth, 24 h at 37 °C, absorbance 620 nm, 6.2-200 µg/mL tested, performed twice
[7] = E. coli ATCC 11775, value in brackets (µM), aliquot spread on MHA plate, 24 h at 37 °C, performed twice
[8] = E. coli ATCC 11775, value in brackets (µM), microdilution, Mueller-Hinton broth, 24 h at 37 °C, performed twice
[9] = S. enteritidis ATCC 13076, aliquot of each well spread on MHA plate, 24 h at 37 °C, CFU/mL, performed twice
[10] = S. enteritidis ATCC 13076, microdilution, Mueller-Hinton broth, 24 h at 37 °C, absorbance 620 nm, 6.2-200 µg/mL tested, performed twice
[11] = S. maltophilia ATCC 13636, aliquot of each well spread on MHA plate, 24 h at 37 °C, CFU/mL, performed twice
[12] = S. maltophilia ATCC 13636, microdilution, Mueller-Hinton broth, 24 h at 37 °C, absorbance 620 nm, 6.2-200 µg/mL tested, performed twice

FKCRRWAQRWRMKKLGAPSITCVRRAF [synthetic peptide homolog to LfcinB, 27 residues, from the literature]
MIC (E. coli K88): 64 µg/mL
MIC (E. coli ATCC 25922 [1]): 30 µg/mL

N=C(N)NCCC[C@@H]1NC(=O)[C@H](Cc2c[nH]c3ccccc23)NC(=O)[C@H](CCC(N)=O)NC(=O)[C@H](Cc2c[nH]c3ccccc23)NC(=O)[C@H](CCCNC(=N)N)NC(=O)[C@H](CCCNC(=N)N)NC(=O)[C@@H](N)CSSC[C@@H](C(N)=O)NC(=O)CCCCCNC1=O [LfcinB (20–25)Cyc] (H-CRRWQWR[Ahx]C-NH2; disulfide 1-9; N-terminus assumed)
MBC (E. coli ATCC 11775; ATCC 11775, 24 h): 19 µM
MIC (E. coli ATCC 11775; ATCC 11775, 24 h): 19 µM
MBC (E. coli ATCC 11775; [5]): 25 µg/mL
MIC (E. coli ATCC 11775; [6]): 25 µg/mL
MBC (E. coli ATCC 11775; [7]): 21 µM
MIC (E. coli ATCC 11775; [8]): 21 µM
MBC ([2]; ATCC 13636, 24 h): 200 µg/mL
MIC ([2]; ATCC 13636, 24 h): 200 µg/mL
MBC ([3]; ATCC 13076, 24 h): 42 µM
MIC ([3]; ATCC 13076, 24 h): 42 µM
MBC [3, 9]: 50 µg/mL
MIC [3, 10]: 50 µg/mL

N=C(N)NCCC[C@H](NC(=O)[C@H](Cc1c[nH]c2ccccc12)NC(=O)[C@H](CCC(N)=O)NC(=O)[C@H](Cc1c[nH]c2ccccc12)NC(=O)[C@H](CCCNC(=N)N)NC(=O)[C@@H](N)CCCNC(=N)N)C(=O)NCCCC[C@H](NC(=O)[C@H](CCCNC(=N)N)NC(=O)[C@H](Cc1c[nH]c2ccccc12)NC(=O)[C@H](CCC(N)=O)NC(=O)[C@H](Cc1c[nH]c2ccccc12)NC(=O)[C@H](CCCNC(=N)N)NC(=O)[C@@H](N)CCCNC(=N)N)C(=O)NCCCCCC(=O)N[C@@H](CSSC[C@H](NC(=O)CCCCCNC(=O)[C@H](CCCCNC(=O)[C@H](CCCNC(=N)N)NC(=O)[C@H](Cc1c[nH]c2ccccc12)NC(=O)[C@H](CCC(N)=O)NC(=O)[C@H](Cc1c[nH]c2ccccc12)NC(=O)[C@H](CCCNC(=N)N)NC(=O)[C@@H](N)CCCNC(=N)N)NC(=O)[C@H](CCCNC(=N)N)NC(=O)[C@H](Cc1c[nH]c2ccccc12)NC(=O)[C@H](CCC(N)=O)NC(=O)[C@H](Cc1c[nH]c2ccccc12)NC(=O)[C@H](CCCNC(=N)N)NC(=O)[C@@H](N)CCCNC(=N)N)C(N)=O)C(N)=O [LfcinB (20–25)4] (I: H-RRWQWRK[Ahx]C-NH2 / II: H-RRWQWRK[Ahx]C-NH2 / III: H-RRWQWR / IV: H-RRWQWR; amide I:7-III:C, II:7-IV:C; disulfide I:9-II:9)
MBC (E. coli ATCC 11775; ATCC 11775, 24 h): 5 µM
MIC (E. coli ATCC 11775; ATCC 11775, 24 h): 5 µM
MBC (E. coli ATCC 11775; [5]): 25 µg/mL
MIC (E. coli ATCC 11775; [6]): 25 µg/mL
MBC (E. coli ATCC 11775; [7]): 5.5 µM
MIC (E. coli ATCC 11775; [8]): 5.5 µM
MBC ([2]; ATCC 13636, 24 h): 44 µM
MIC ([2]; ATCC 13636, 24 h): > 44 µM
MBC [2, 11]: 200 µg/mL
MIC [2, 12]: > 200 µg/mL
MBC ([3]; ATCC 13076, 24 h): 22 µM
MIC ([3]; ATCC 13076, 24 h): 44 µM
MBC [3, 9]: 100 µg/mL
MIC [3, 10]: 200 µg/mL

RRWQWR-NH2 [LfcinB 20–25]
MBC (E. coli ATCC 11775; ATCC 11775, 24 h): 13 µM
MIC (E. coli ATCC 11775; ATCC 11775, 24 h): 13 µM
MBC ([2]; ATCC 13636, 24 h): > 203 µM
MIC ([2]; ATCC 13636, 24 h): > 203 µM
MBC ([3]; ATCC 13076, 24 h): 102 µM
MIC ([3]; ATCC 13076, 24 h): 102 µM

KCRRWAQRWRMKKLGAPSITCVR [shorter peptide, 23 residues, from the literature]
MIC (E. coli ATCC 25922 [1]): 30 µg/mL

WRWRW
MIC (E. coli ATCC 25922 [1]; palindromic sequences): 15 µg/mL

WRYRW
MIC (E. coli ATCC 25922 [1]; palindromic sequences): 100 µg/mL

RWQWRWQWR-NH2 [LfcinB 21–25Pal]
MBC (E. coli ATCC 11775; ATCC 11775, 24 h): 8 µM
MIC (E. coli ATCC 11775; ATCC 11775, 24 h): 8 µM
MIC (E. coli ATCC 25922 [4]): 40 µg/mL
MBC ([2]; ATCC 13636, 24 h): 136 µM
MIC ([2]; ATCC 13636, 24 h): > 136 µM
MBC ([3]; ATCC 13076, 24 h): 17 µM
MIC ([3]; ATCC 13076, 24 h): 17 µM

CSCC[C@H](NC(=O)[C@H](CCCNC(=N)N)NC(=O)[C@H](Cc1c[nH]c2ccccc12)NC(=O)[C@H](CCC(N)=O)NC(=O)[C@H](Cc1c[nH]c2ccccc12)NC(=O)[C@H](CCCNC(=N)N)NC(=O)[C@H](CCCNC(=N)N)NC(=O)[C@H](CS)NC(=O)[C@H](CCCCN)NC(=O)[C@@H](N)Cc1ccccc1)C(=O)N[C@@H](CCCCN)C(=O)N[C@@H](CCCCN)C(=O)N[C@@H](CC(C)C)C(=O)NCC(=O)N[C@@H](C)C(N)=O [LfcinB 17–31]
MBC (E. coli ATCC 11775; ATCC 11775, 24 h): 13 µM
MIC (E. coli ATCC 11775; ATCC 11775, 24 h): 13 µM
MBC (E. coli ATCC 11775; [5]): 25 µg/mL
MIC (E. coli ATCC 11775; [6]): 25 µg/mL
MBC (E. coli ATCC 11775; [7]): 12.5 µM
MIC (E. coli ATCC 11775; [8]): 12.5 µM
MBC ([2]; ATCC 13636, 24 h): > 100 µM
MIC ([2]; ATCC 13636, 24 h): > 100 µM
MBC [2, 11]: > 200 µg/mL
MIC [2, 12]: > 200 µg/mL
MBC ([3]; ATCC 13076, 24 h): 100 µM
MIC ([3]; ATCC 13076, 24 h): > 100 µM
MBC [3, 9]: 200 µg/mL
MIC [3, 10]: > 200 µg/mL

N=C(N)NCCC[C@H](NC(=O)[C@H](Cc1c[nH]c2ccccc12)NC(=O)[C@H](CCC(N)=O)NC(=O)[C@H](Cc1c[nH]c2ccccc12)NC(=O)[C@H](CCCNC(=N)N)NC(=O)[C@@H](N)CCCNC(=N)N)C(=O)NCCCC[C@H](NC(=O)[C@H](CCCNC(=N)N)NC(=O)[C@H](Cc1c[nH]c2ccccc12)NC(=O)[C@H](CCC(N)=O)NC(=O)[C@H](Cc1c[nH]c2ccccc12)NC(=O)[C@H](CCCNC(=N)N)NC(=O)[C@@H](N)CCCNC(=N)N)C(=O)NCCCCCC(N)=O [LfcinB (20–25)2] (I: H-RRWQWRK[Ahx]-NH2 / II: H-RRWQWR; amide I:7-II:C)
MBC (E. coli ATCC 11775; ATCC 11775, 24 h): 3 µM
MIC (E. coli ATCC 11775; ATCC 11775, 24 h): 3 µM
MBC (E. coli ATCC 11775; [5]): 6.2 µg/mL
MIC (E. coli ATCC 11775; [6]): 6.2 µg/mL
MBC (E. coli ATCC 11775; [7]): 2.8 µM
MIC (E. coli ATCC 11775; [8]): 2.8 µM
MBC ([2]; ATCC 13636, 24 h): 22.4 µM
MIC ([2]; ATCC 13636, 24 h): 22.4 µM
MBC [2, 11]: 50 µg/mL
MIC [2, 12]: 50 µg/mL
MBC ([3]; ATCC 13076, 24 h): 5.6 µM
MIC ([3]; ATCC 13076, 24 h): 6 µM
MBC [3, 9]: 12.5 µg/mL
MIC [3, 10]: 12.5 µg/mL
MIC ([3]; S. enteritidis ATCC 13076, value in brackets (µM), microdilution, Mueller-Hinton broth, 24 h at 37 °C, performed twice): 5.6 µM

RWRWR
MIC (E. coli ATCC 25922 [1]; palindromic sequences): 200 µg/mL
